Experimental data reported in patent US20250100977A1, “MERCAPTOPYRIMIDINE COMPOUNDS THAT INHIBIT NONHOMOLOGOUS END JOINING AND METHODS THEREOF” (INDIAN INSTITUTE OF SCIENCE, priority 2021, published 2025).
Several values for one entry are separate records, joined by “and”; a condition that tells them apart may be missing. Equal entries are not always repeated. Where two headings read alike, the source gives them in different places.

Assays:
HCT116 derived xenograft = experiment: Mouse xenograft model, HCT116; type: in vivo
Supt1 = experiment: Cytotoxicity in Supt1; type: cell-based; conditions: Homo sapiens, SUP-T1; Table 2; read-out: IC50 in cancer cell lines, Supt1
Protocol: (§1) Ligase IV specificity of the compounds of the present invention inside the cells were also determined using Ligase IV knock out (KO) cell line N114 compared to the wild type Nalm6 (Table 2, FIGS. 5C, D, E and F). […] Table 1 showing IC50 of SCR7 derivatives in cancer cell lines Nalm6 and HeLa. IC50 was calculated using GraphPad Prism software from the percentage of viable cells following treatment with the compounds at 48 h. Table 2 showing IC50 of SCR116 and SCR132 in a panel of 16 cancer cell lines.

cancer cells = experiment: Cytotoxicity in combination with radiation or chemotherapeutic agents; type: cell-based; conditions: combined with 0.5 and 1 Gy γ-radiation, or 5-FU and etoposide
Protocol: FIG. 7(A-F) depicts evaluation of generation of double-strand breaks inside cells treated with compounds SCR116 and SCR132 alone or in combination, A. Immunofluorescence with 53BP1 in HeLa cells treated with increasing concentration of SCR116 (2 and 5 μM) and SCR132 (1 and 2 μM). Nucleus is stained in red using propidium iodide, while green signal represents 53BP1 foci (FITC). B. Quantification of 53BP1 foci inside HeLa cells treated with SCR116 and SCR132 for 24 h, as denoted using scatter plot. Significance was calculated using ANOVA in GraphPad Prism software (ns, not significant; *p<0.05, **p<0.005, ***p<0.0001). C-D. Bar graphs showing percentage of viable cells following treatment with the compounds alone, or in presence of γ-radiation (0.5 Gy) at 24 (C) and 48 h (D). 2 and 4 μM SCR116, and 1 and 2 μM SCR132 were used. E. Bar graph showing percentage of viable cells following treatment with SCR116 (0.375 μM) or SCR132 (0.125 μM) alone, or in presence of 0.25 μM etoposide at 48 h. F. Bar graph showing percentage of viable cells following treatment with SCR116 (0.375 μM) or SCR132 (0.125 μM) alone, or in presence of 0.375 μM 5-FU at 48 h, in accordance with an implementation of the present disclosure.

Molt4 derived xenograft = experiment: Mouse xenograft model, Molt4; type: in vivo; conditions: for Tumor volume: alternate days; for Survival: tumor control animals died by day 18
Protocol: Effect of the compounds was further evaluated in mouse xenograft model generated using Ligase IV high human leukemic cell line, Molt4. Oral doses of SCR116 and SCR132 at 10 mg/kg and 15 mg/kg respectively were administered on alternate days.

Ligase I = target: T1, Ligase I (Homo sapiens, UniProt P18858); experiment: Inhibition of end joining by purified Ligase I; type: biochemical; conditions: up to highest concentration of 1000 μM
T1 construct: made in house; host or cells: bacteria
T1 sequence (P18858 whole entry): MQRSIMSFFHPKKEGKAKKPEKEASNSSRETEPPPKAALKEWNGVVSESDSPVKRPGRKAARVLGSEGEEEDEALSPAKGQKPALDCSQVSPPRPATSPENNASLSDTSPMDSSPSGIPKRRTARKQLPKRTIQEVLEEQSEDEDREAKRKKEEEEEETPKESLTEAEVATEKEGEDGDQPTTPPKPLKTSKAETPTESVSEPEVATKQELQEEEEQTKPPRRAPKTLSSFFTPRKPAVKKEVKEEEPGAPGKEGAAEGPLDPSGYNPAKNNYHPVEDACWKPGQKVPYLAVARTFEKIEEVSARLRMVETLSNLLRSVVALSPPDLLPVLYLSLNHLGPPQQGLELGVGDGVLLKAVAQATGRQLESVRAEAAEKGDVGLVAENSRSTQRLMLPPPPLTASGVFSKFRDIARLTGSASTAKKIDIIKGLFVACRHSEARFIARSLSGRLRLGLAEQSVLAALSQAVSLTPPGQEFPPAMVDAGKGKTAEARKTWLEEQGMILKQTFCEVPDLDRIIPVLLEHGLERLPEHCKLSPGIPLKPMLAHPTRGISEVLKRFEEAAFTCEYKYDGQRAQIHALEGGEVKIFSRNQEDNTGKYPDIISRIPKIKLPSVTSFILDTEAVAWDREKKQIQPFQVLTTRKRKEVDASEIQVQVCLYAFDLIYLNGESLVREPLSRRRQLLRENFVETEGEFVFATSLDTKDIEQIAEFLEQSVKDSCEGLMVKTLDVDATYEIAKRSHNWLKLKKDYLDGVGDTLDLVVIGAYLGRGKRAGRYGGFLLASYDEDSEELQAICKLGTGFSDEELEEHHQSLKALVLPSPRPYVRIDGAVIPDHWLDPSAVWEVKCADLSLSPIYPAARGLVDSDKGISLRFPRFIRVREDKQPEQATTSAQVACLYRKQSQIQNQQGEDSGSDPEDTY
Protocol: The compounds of the present invention were analysed for inhibition of end joining with purified Ligase I (FIG. 3A) and Ligase III/XRCC1 (FIG. 3F). The compounds were incubated with either purified Ligase I (FIG. 3B-E) or with Ligase III/XRCC1 (FIGS. 3G-J) in suitable NHEJ buffer at 25° C. for 30 min, followed by addition of radiolabeled DNA, and further incubation for 1 h at 25° C. Products were purified using phenol: chloroform, and run on denaturing PAGE.
Effects of these compounds on NHEJ and Ligase IV mediated joining were evaluated (FIG. 4A-K). The reactions were terminated by EDTA (10 mM), products were purified using phenol/chloroform, precipitated with chilled ethanol and glycogen, and resolved on 8% denaturing PAGE. The gel was dried, exposed, and signal was detected using phosphor Imager FLA9000 (Fuji, Japan), and quantified in MultiGauge software expressed as Photo Stimulated Luminescence Units (PSLU). Inhibition of end joining was reported at 200 μM and 100 μM, respectively for SCR116 and SCR132 (FIGS. 4A, B, C and D), with >50% inhibition at 200 and 100 μM concentrations, respectively. […] FIG. 4K depict the purification profile of Ligase IV and XRCC4. […]

rat testicular extracts = experiment: Inhibition of end joining of rat testicular extracts (NHEJ); type: biochemical; conditions: for Inhibition of end joining (in words): 200 μM; for Inhibition of end joining (no joined product observed): 500 μM, rat testicular extract; for End joining after Ligase IV added back to inhibited testicular extract: complementation with purified Ligase IV/XRCC4
Protocol: The compounds of the present invention were tested for their effects on inhibition of DNA end joining reactions using rat tissue extracts and purified DNA Ligase IV/XRCC4. Rat testicular extracts were prepared from testes of 4-6 week old male Wistar rats, Rattus norvegicus using ammonium sulphate precipitation method. To determine end joining of cell-free extracts, radiolabeled double-stranded (ds) oligomeric DNA substrate was incubated with rat testicular extract at 25° C. in suitable NHEJ buffer. Extracts were incubated for 30 min with the compounds of Formula I (01-41, 500 μM) as prepared in Example 1, and then radioactive DNA substrate was added to the reaction mixture and incubated for 1 h at 25° C. Reactions were stopped using EDTA, and products were purified using phenol: chloroform extraction and loaded on denaturing polyacrylamide gel. […] Joining efficiency was calculated using the intensity of product bands (150 bp or higher) in individual lanes in Multi Gauge software as compared to control (lanes 2,3). Lane 1 denotes radioactive substrate in absence of protein or inhibitor, while M denotes radiolabeled 50 bp DNA ladder.
Effects of these compounds on NHEJ and Ligase IV mediated joining were evaluated (FIG. 4A-K). The reactions were terminated by EDTA (10 mM), products were purified using phenol/chloroform, precipitated with chilled ethanol and glycogen, and resolved on 8% denaturing PAGE. The gel was dried, exposed, and signal was detected using phosphor Imager FLA9000 (Fuji, Japan), and quantified in MultiGauge software expressed as Photo Stimulated Luminescence Units (PSLU). Inhibition of end joining was reported at 200 μM and 100 μM, respectively for SCR116 and SCR132 (FIGS. 4A, B, C and D), with >50% inhibition at 200 and 100 μM concentrations, respectively. […] FIG. 4K depict the purification profile of Ligase IV and XRCC4. Further FIGS. 4L-M represent inhibition of end joining catalysed by (FIG. 4L) purified Ligase III/XRCCI in presence of SCR116 and SCR132 (50, 100, 200, 500, 1000 μM) and (FIG. 4M) by purified Ligase I in presence of increasing concentrations of SCR116 and SCR132 (10, 50, 100, 200, 500, 1000 μM).

[1] = test system: V(D)J recombination in Nalm6 (pGG51); experiment: V(D)J recombination in Nalm6 using pGG51; type: cell-based; conditions: for Fold reduction in recombination efficiency: vs vehicle control
Protocol: Evaluation of efficiency of V(D)J recombination following treatment with SCR116 and SCR132 was carried out as depicted in FIGS. 6(A-C). Tables 4 and 5 summarize the effect of SCR116 (1 and 2 μM) and SCR132 (0.5 and 1 μM) on V(D)J recombination in Nalm6 using pGG49 and pGG51, respectively.

Nalm6 = experiment: Cytotoxicity (viable cells) in Nalm6; type: cell-based; conditions: Homo sapiens, NALM-6, read-out: IC50 in cancer cell lines, Nalm6
Protocol: The compounds of the present invention were screened initially in leukemic and cervical cancer cell lines (Table 1). […] In cervical cancer cell line HeLa, IC50 was 5 and 2 μM, respectively for SCR116 and SCR132 (FIG. 5A-B).
as §1

MCF7 = experiment: Cytotoxicity in MCF7; type: cell-based; conditions: Homo sapiens, MCF7; Table 2; read-out: IC50 in cancer cell lines, MCF7
Protocol: as §1

| Structure (SMILES) | Tumor volume (HCT116 derived xenograft) | IC50 (Supt1) [nM] | Cytotoxicity in combination (cancer cells) | Inhibition of end joining with Ligase I (Ligase I) | Inhibition of end joining (in words) (rat testicular extracts) | Inhibition of end joining (no joined product observed) (rat testicular extracts) | End joining after Ligase IV added back to inhibited testicular extract (rat testicular extracts) | Recombination efficiency (CA/A) ×100 ([1]; 1 μM) | IC50 (Nalm6; Table 1, 48 h) [nM] | IC50 (Nalm6; Table 2) [nM] | IC50 (MCF7) [nM] | other results |
| --- | --- | --- | --- | --- | --- | --- | --- | --- | --- | --- | --- | --- |
| Nc1nc(S)nc(O)c1/N=C/c1sc(Cl)nc1Cl [Compound 32, (E)-6-amino-5-(((2,4-dichlorothiazol-5-yl)methylene)amino)-2-mercaptopyrimidin-4-ol] | significant reduction in tumor volume | 734 | Increased cytotoxicity | no inhibition | complete inhibition of end joining | showed inhibition of end joining | joining efficiency was restored | 0.003 | 1790 | 1790 | 5000 | Tumor volume (Molt4 derived xenograft; oral 15 mg/kg): effectively reduced the tumor volume; Survival (Molt4 derived xenograft; oral 15 mg/kg): survived the entire experimental period; Recombination efficiency (CA/A) ×100 ([1]; 0.5 μM): 0.006; Fold reduction in recombination efficiency ([1]; 0.5 μM, listed as SCR132): 50 fold and 50.0 fold; Fold reduction in recombination efficiency ([1]; 1 μM, listed as SCR132): 106 fold and 106.6 fold |
| Nc1nc(S)nc(O)c1/N=C/c1ccc([N+](=O)[O-])s1 [Compound 16, (E)-6-amino-2-mercapto-5-(((5-nitrothiophen-2-yl)methylene)amino)pyrimidin-4-ol] | significant reduction in tumor volume | 1320 | Increased cytotoxicity | no inhibition | complete inhibition of end joining | showed inhibition of end joining | joining efficiency was restored | 0.030 | 3440 | 3440 | 10000 | Tumor volume (Molt4 derived xenograft; oral 10 mg/kg): effectively reduced the tumor volume; Survival (Molt4 derived xenograft; oral 10 mg/kg): survived the entire experimental period; Fold reduction in recombination efficiency ([1]; 1 μM, listed as SCR116): 9 fold and 9.0 fold; Recombination efficiency (CA/A) ×100 ([1]; 2 μM): 0.005; Fold reduction in recombination efficiency ([1]; 2 μM, listed as SCR116): 54 fold and 54.0 fold |
